Measurements from PubChem BioAssay (NCI).
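Values below derive from 48-hour exposures of cells grown in 96-well plates, with endpoints linearly interpolated between the two concentrations bracketing the appropriate inhibition level. TGI denotes the concentration required for complete inhibition of growth.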

Legend:
Test in all cases: inhibition of tumour cell growth, NCI panel, 48 h
786-0 renal = system: 786-0 renal
A498 renal = system: A498 renal
A549 NSCLC = system: A549 NSCLC
BT-549 breast = system: BT-549 breast
CAKI-1 renal = system: CAKI-1 renal
CCRF-CEM leukemia = system: CCRF-CEM leukemia
COLO 205 colon = system: COLO 205 colon
DU-145 prostate = system: DU-145 prostate
EKVX NSCLC = system: EKVX NSCLC
HCC-2998 colon = system: HCC-2998 colon
HCT-116 colon = system: HCT-116 colon
HL-60(TB) leukemia = system: HL-60(TB) leukemia
HOP-62 NSCLC = system: HOP-62 NSCLC
HS 578T breast = system: HS 578T breast
HT29 colon = system: HT29 colon
IGROV1 ovarian = system: IGROV1 ovarian
K-562 leukemia = system: K-562 leukemia
M14 melanoma = system: M14 melanoma
MALME-3M melanoma = system: MALME-3M melanoma
MCF7 breast = system: MCF7 breast
MDA-MB-231 breast = system: MDA-MB-231 breast
MDA-MB-435 = system: MDA-MB-435
MDA-N = system: MDA-N
MOLT-4 leukemia = system: MOLT-4 leukemia
NCI-H226 lung = system: NCI-H226 lung
NCI-H23 lung = system: NCI-H23 lung
NCI-H522 lung = system: NCI-H522 lung
NCI/ADR-RES ovarian = system: NCI/ADR-RES ovarian
OVCAR-3 ovarian = system: OVCAR-3 ovarian
OVCAR-5 ovarian = system: OVCAR-5 ovarian
OVCAR-8 ovarian = system: OVCAR-8 ovarian
PC-3 prostate = system: PC-3 prostate
RXF 393 renal = system: RXF 393 renal
SF-268 CNS = system: SF-268 CNS
SF-295 CNS = system: SF-295 CNS
SF-539 CNS = system: SF-539 CNS
SK-MEL-2 melanoma = system: SK-MEL-2 melanoma
SK-MEL-5 melanoma = system: SK-MEL-5 melanoma
SK-OV-3 ovarian = system: SK-OV-3 ovarian
SN12C renal = system: SN12C renal
SNB-75 CNS = system: SNB-75 CNS
T-47D breast = system: T-47D breast
TK-10 renal = system: TK-10 renal
U251 CNS = system: U251 CNS
UACC-257 melanoma = system: UACC-257 melanoma
UACC-62 melanoma = system: UACC-62 melanoma
ACHN renal = system: ACHN renal
HCT-15 colon = system: HCT-15 colon
HOP-92 NSCLC = system: HOP-92 NSCLC
KM12 colon = system: KM12 colon
LOX IMVI melanoma = system: LOX IMVI melanoma
NCI-H460 lung = system: NCI-H460 lung
OVCAR-4 ovarian = system: OVCAR-4 ovarian
RPMI-8226 leukemia = system: RPMI-8226 leukemia
SK-MEL-28 melanoma = system: SK-MEL-28 melanoma
SNB-19 CNS = system: SNB-19 CNS
SR leukemia = system: SR leukemia
SW-620 colon = system: SW-620 colon
UO-31 renal = system: UO-31 renal

## ClC(Cl)(Cl)C1CCOC1n1nnc2ccccc21 (stereo not drawn)
786-0 renal
  TGI: > 100 µM
A498 renal
  TGI: > 100 µM
A549 NSCLC
  TGI: > 100 µM
BT-549 breast
  TGI: 86 µM
CAKI-1 renal
  TGI: > 100 µM
CCRF-CEM leukemia
  TGI: > 100 µM
COLO 205 colon
  TGI: > 100 µM
DU-145 prostate
  TGI: > 100 µM
EKVX NSCLC
  TGI: > 100 µM
HCC-2998 colon
  TGI: > 100 µM
HCT-116 colon
  TGI: > 100 µM
HL-60(TB) leukemia
  TGI: 58.2 µM
HOP-62 NSCLC
  TGI: > 100 µM
HS 578T breast
  TGI: > 100 µM
HT29 colon
  TGI: > 100 µM
IGROV1 ovarian
  TGI: > 100 µM
K-562 leukemia
  TGI: 63.9 µM
M14 melanoma
  TGI: > 100 µM
MALME-3M melanoma
  TGI: > 100 µM
MCF7 breast
  TGI: > 100 µM
MDA-MB-231 breast
  TGI: > 100 µM
MDA-MB-435
  TGI: > 100 µM
MDA-N
  TGI: > 100 µM
MOLT-4 leukemia
  TGI: 73.8 µM
NCI-H226 lung
  TGI: > 100 µM
NCI-H23 lung
  TGI: > 100 µM
NCI-H522 lung
  TGI: > 100 µM
NCI/ADR-RES ovarian
  TGI: > 100 µM
OVCAR-3 ovarian
  TGI: > 100 µM
OVCAR-5 ovarian
  TGI: > 100 µM
OVCAR-8 ovarian
  TGI: > 100 µM
PC-3 prostate
  TGI: > 100 µM
RXF 393 renal
  TGI: > 100 µM
SF-268 CNS
  TGI: > 100 µM
SF-295 CNS
  TGI: > 100 µM
SF-539 CNS
  TGI: > 100 µM
SK-MEL-2 melanoma
  TGI: > 100 µM
SK-MEL-5 melanoma
  TGI: > 100 µM
SK-OV-3 ovarian
  TGI: > 100 µM
SN12C renal
  TGI: > 100 µM
SNB-75 CNS
  TGI: 54.3 µM
T-47D breast
  TGI: > 100 µM
TK-10 renal
  TGI: > 100 µM
U251 CNS
  TGI: > 100 µM
UACC-257 melanoma
  TGI: > 100 µM
UACC-62 melanoma
  TGI: > 100 µM

## c1nc(NCCc2cnc[nH]2)c2[nH]cnc2n1
786-0 renal
  TGI: > 100 µM
A498 renal
  TGI: > 100 µM
A549 NSCLC
  TGI: > 100 µM
ACHN renal
  TGI: > 100 µM
BT-549 breast
  TGI: > 100 µM
CAKI-1 renal
  TGI: > 100 µM
CCRF-CEM leukemia
  TGI: > 100 µM
COLO 205 colon
  TGI: > 100 µM
DU-145 prostate
  TGI: > 100 µM
EKVX NSCLC
  TGI: > 100 µM
HCT-116 colon
  TGI: > 100 µM
HCT-15 colon
  TGI: > 100 µM
HL-60(TB) leukemia
  TGI: > 100 µM
HOP-62 NSCLC
  TGI: > 100 µM
HOP-92 NSCLC
  TGI: > 100 µM
HS 578T breast
  TGI: > 100 µM
HT29 colon
  TGI: > 100 µM
IGROV1 ovarian
  TGI: > 100 µM
K-562 leukemia
  TGI: > 100 µM
KM12 colon
  TGI: > 100 µM
LOX IMVI melanoma
  TGI: > 100 µM
M14 melanoma
  TGI: > 100 µM
MALME-3M melanoma
  TGI: > 100 µM
MDA-MB-231 breast
  TGI: > 100 µM
MDA-MB-435
  TGI: > 100 µM
MDA-N
  TGI: > 100 µM
MOLT-4 leukemia
  TGI: > 100 µM
NCI-H226 lung
  TGI: > 100 µM
NCI-H23 lung
  TGI: > 100 µM
NCI-H460 lung
  TGI: > 100 µM
NCI-H522 lung
  TGI: > 100 µM
NCI/ADR-RES ovarian
  TGI: > 100 µM
OVCAR-3 ovarian
  TGI: > 100 µM
OVCAR-4 ovarian
  TGI: > 100 µM
OVCAR-5 ovarian
  TGI: > 100 µM
OVCAR-8 ovarian
  TGI: > 100 µM
PC-3 prostate
  TGI: > 100 µM
RPMI-8226 leukemia
  TGI: > 100 µM
RXF 393 renal
  TGI: > 100 µM
SF-268 CNS
  TGI: > 100 µM
SF-295 CNS
  TGI: > 100 µM
SF-539 CNS
  TGI: > 100 µM
SK-MEL-2 melanoma
  TGI: > 100 µM
SK-MEL-28 melanoma
  TGI: > 100 µM
SK-MEL-5 melanoma
  TGI: > 100 µM
SK-OV-3 ovarian
  TGI: > 100 µM
SN12C renal
  TGI: > 100 µM
SNB-19 CNS
  TGI: > 100 µM
SNB-75 CNS
  TGI: > 100 µM
SR leukemia
  TGI: > 100 µM
SW-620 colon
  TGI: > 100 µM
T-47D breast
  TGI: > 100 µM
TK-10 renal
  TGI: > 100 µM
U251 CNS
  TGI: > 100 µM
UACC-257 melanoma
  TGI: > 100 µM
UACC-62 melanoma
  TGI: > 100 µM
UO-31 renal
  TGI: > 100 µM
